Measurements from US6841563B1, “Aryloxy propanolamines for improving livestock production” (Eli Lilly and Company, priority 1999, dated 2005).
Marks after values point to notes of the source that are not given here.

Legend:
[1] = Weight gain, feed efficiency and carcass characteristics, last 14 days of growing period in broiler chickens; type: in vivo
Description: Approximately 1500 Peterson-Hubbard, day-old, male chicks were used in a randomized, complete-block design with 4 treatments (Control, Clenbuterol at 1 PPM, and Compound 6 at 3 and 15 PPM (mg/kg feed)). The testing facility contained 36 pens, divided equally into 6 blocks. Treatments were randomly allotted to pens within each block. Each treatment consisted of 6 pens with 10 birds per pen.
Day-of-age birds were obtained from Pine Manor Hatchery in Goshen, Ind. Approximately 40 birds per pen were set at random upon receipt. On day 30 of the growout period, all birds were weighed and the 15 birds closest to the block mean were selected. These birds were allowed to acclimate until day 35 of age. On that day, all remaining birds were weighed again, and the 10 birds/pen closest to the block mean were chosen for the treatment phase. Birds were provided ad libitum access to feed and water throughout the trial. All birds were fed a 23% crude protein corn-soy ration from day 1 until day 18 of age. The feed was changed to a 20% crude protein corn-soy ration from day 18 to day 49. The treatment feed was mixed using the same 20% crude protein basal ration. Treatments were administered in the feed from day 35 through day 49. Feed consumption was calculated over the entire 14-day treatment period. Birds were weighed at trial completion (day 49), and transported to Purdue University, West Lafayette, Ind. 47907, U.S.A. meat laboratory for slaughter and carcass measurements on day 50. Weights of the hot carcass, fat pad, and viscera were taken on all animals.

[2] = Intravenous administration to cattle: serum non-esterified fatty acid (NEFA) and serum urea nitrogen (SUN) levels; type: in vivo; settings: for ΔNEFA 24 Hours / change in vivo at 0.04 mg/kg: 40 μg per kilogram i.v. twice; for ΔNEFA 24 Hours: T+24 h minus T=0; for ΔNEFA 24 Hours / ΔNEFA 15 Min. / change in vivo at 0.04 mg/kg: mean of five animals; for ΔNEFA 15 Min.: 40 μg per kilogram i.v., T+15 min minus T=0; for change in vivo at 0.04 mg/kg: Bos taurus, iv, 24 hours post treatment vs baseline T=0, read-out: Δ% SUN 24 Hours; for lipolytic effects (non-esterified fatty acid levels): fifteen minutes and twenty-four hours after administration; for anabolic effects (change in serum urea nitrogen levels): twenty-four hours after administration, compared with the corresponding carboxamide regioisomers
Description: Intravenous administration of the compounds of the present invention to cattle increases serum non-esterified fatty acids and decreases serum urea. In this Example, angus/angus cross calves, both heifers and steers, weighing approximately 282 pounds (128 kg) initially to 788 pounds (357.8 kg) over the course of these studies, were placed in pens at 5 calves per pen. The cattle were acclimated to the pens for at least 1 week prior to initiating the study.
Calves were fed ad libitum twice daily, (approximately 6-15 pounds (2.7-6.8 kg)/day). During the treatment day, in the A.M. period, the feeding times were staggered to ensure that all animals were fed approximately one hour before the treatments were administered. During the P.M. treatment period, the cattle were fed immediately after receiving the P.M. injection.
After taking a pretreatment (T=O) blood sample from each animal, a 40 μg per kilogram dose of a test compound was administered intravenously in the jugular vein at 6:30 A.M. and 2:30 P.M. Each test compound was administered at a concentration of 1.00-1.25 mg/ml in a treatment vehicle that was a 50/50 mixture of polyethylene glycol 200/water.
A blood sample was taken at fifteen minutes post-treatment (T+15 min). The calves were returned to their respective pens until their next treatment, approximately eight hours later. The next morning at 6:30 A.M. a blood sample was collected from all calves at 24 hours post-treatment (T+24 h). All blood samples were analyzed for the non-esterified fatty acid level (NEFA) and serum urea nitrogen level (SUN). The post-treatment NEFA and SUN levels in each individual animal were compared with the levels found before treatment.

Compound: CC(C)(C)NCC(O)c1cc(Cl)c(N)c(Cl)c1 (stereo not drawn) [Clenbuterol, reference compound]
- Dressing Percentage ([1]; 1 PPM in feed, day 35-49): 72.77**
- Fat Pad Weight ([1]; 1 PPM in feed, day 35-49): 26.86 g
- Final Weight ([1]; 1 PPM in feed, day 35-49): 3.02 kg
- Hot Carcass Weights ([1]; 1 PPM in feed, day 35-49): 2191.64** g
- Pen Feed Intake ([1]; 1 PPM in feed, day 35-49): 25.20 kg
- Total 14 day Weight Gain ([1]; 1 PPM in feed, day 35-49): 1.29 kg
- Viscera Weight ([1]; 1 PPM in feed, day 35-49): 285.45 g
- Feed Efficiency F/G ([1]; 1 PPM in feed, day 35-49, pen feed intake/total pen weight): 1.99
- increase in weight gain over control ([1]; 1 PPM, 14-day treatment period, P=0.1430): 2.38%
- improvement of feed efficiency versus control ([1]; 1 PPM, 14-day treatment period, P=0.7320): 0.50%
- increase in hot carcass weights compared to control ([1]; 1 PPM, P=0.0027): 3.25%
- decrease in viscera weights with respect to control ([1]; 1 PPM, P=0.7215): 0.66%

Compound: CC(C)(Cc1ccc(Oc2ccc(C(N)=O)cn2)cc1)NC[C@H](O)COc1cccc2[nH]ncc12 [Compound 1]
- ΔNEFA 24 Hours [2]: 820.9 µmol/L
- ΔNEFA 15 Min. [2]: 554.4 µmol/L
- change in vivo at 0.04 mg/kg [2]: -28.7%

Compound: CC(C)(Cc1ccc(Oc2ncccc2C(N)=O)cc1)NC[C@H](O)COc1cccc2[nH]ncc12 [Compound 2]
- ΔNEFA 24 Hours [2]: 742.4 µmol/L
- ΔNEFA 15 Min. [2]: 141.2 µmol/L
- change in vivo at 0.04 mg/kg [2]: -39.3%
- lipolytic effects (non-esterified fatty acid levels) [2]: modest lipolytic effects
- anabolic effects (change in serum urea nitrogen levels) [2]: significantly greater

Compound: CC(C)(Cc1ccc(Oc2ccc(C(N)=O)cn2)cc1)NC[C@H](O)COc1cccc2[nH]c(=S)[nH]c12 [Compound 3]
- ΔNEFA 24 Hours [2]: 200.2 µmol/L
- ΔNEFA 15 Min. [2]: 379.4 µmol/L
- change in vivo at 0.04 mg/kg [2]: -38.2%

Compound: CC(C)(Cc1ccc(Oc2ncccc2C(N)=O)cc1)NC[C@H](O)COc1cccc2[nH]c(=S)[nH]c12 [Compound 4]
- ΔNEFA 24 Hours [2]: 265.3 µmol/L
- ΔNEFA 15 Min. [2]: 283.1 µmol/L
- change in vivo at 0.04 mg/kg [2]: -57%
- lipolytic effects (non-esterified fatty acid levels) [2]: modest lipolytic effects
- anabolic effects (change in serum urea nitrogen levels) [2]: significantly greater

Compound: CC(C)(Cc1ccc(Oc2ccc(C(N)=O)cn2)cc1)NC[C@H](O)COc1cccc2[nH]ccc12 [Compound 5]
- ΔNEFA 24 Hours [2]: -5.6 µmol/L
- ΔNEFA 15 Min. [2]: 170.8 µmol/L
- change in vivo at 0.04 mg/kg [2]: -28.6%

Compound: CC(C)(Cc1ccc(Oc2ccc(C(N)=O)cn2)cc1)NC[C@H](O)COc1cccc2[nH]c(=O)[nH]c12 [Compound 7]
- ΔNEFA 24 Hours [2]: -4.2 µmol/L
- ΔNEFA 15 Min. [2]: 134.1 µmol/L
- change in vivo at 0.04 mg/kg [2]: -9.7%

Compound: CC(C)(Cc1ccc(Oc2ncccc2C(N)=O)cc1)NC[C@H](O)COc1cccc2[nH]c(=O)[nH]c12 [Compound 8]
- ΔNEFA 24 Hours [2]: 35.6 µmol/L
- ΔNEFA 15 Min. [2]: 321.4 µmol/L
- change in vivo at 0.04 mg/kg [2]: -14.2%
- lipolytic effects (non-esterified fatty acid levels) [2]: modest lipolytic effects
- anabolic effects (change in serum urea nitrogen levels) [2]: significantly greater

Compound: CC(C)(Cc1ccc(Oc2ccccc2C(N)=O)cc1)NC[C@H](O)COc1cccc2[nH]ccc12 [Compound 9]
- ΔNEFA 24 Hours [2]: -15.4 µmol/L
- ΔNEFA 15 Min. [2]: 99 µmol/L
- change in vivo at 0.04 mg/kg [2]: -37%

Compound: CC(C)(Cc1ccc(Oc2cccc(Cl)c2C(N)=O)cc1)NC[C@H](O)COc1cccc2[nH]ccc12 [Compound 10]
- ΔNEFA 24 Hours [2]: -72.7 µmol/L
- ΔNEFA 15 Min. [2]: 52.7 µmol/L
- change in vivo at 0.04 mg/kg [2]: -20.7%

Compound: CC(C)(Cc1ccc(Oc2ccc(Cl)cc2C(N)=O)cc1)NC[C@H](O)COc1cccc2[nH]ccc12 [Compound 11]
- ΔNEFA 24 Hours [2]: -14.1 µmol/L
- ΔNEFA 15 Min. [2]: 94 µmol/L
- change in vivo at 0.04 mg/kg [2]: -39.4%

Compound: Cc1c[nH]c2cccc(OC[C@@H](O)CNC(C)(C)Cc3ccc(Oc4ncccc4C(N)=O)cc3)c12 [Compound 12]
- ΔNEFA 24 Hours [2]: -63.7 µmol/L
- ΔNEFA 15 Min. [2]: 332.6 µmol/L
- change in vivo at 0.04 mg/kg [2]: -30.1%

Compound: CC(C)(Cc1ccc(Oc2cccc(Cl)c2C(N)=O)cc1)NC[C@H](O)COc1cccc2[nH]c(C#N)cc12 [Compound 13]
- ΔNEFA 24 Hours [2]: 32.1 µmol/L
- ΔNEFA 15 Min. [2]: 118.1 µmol/L
- change in vivo at 0.04 mg/kg [2]: -36.7%
